“And” between values parts separate entries of the source, which are not always exact repeats. Equal entries are not always repeated. “Also recorded” adds a separate entry of the source.

These results are taken from patent publication US20220056075A1, “METHOD FOR TREATING OPIOID USE DISORDER” (THE ADMINISTRATORS OF THE TULANE EDUCATIONAL FUND, priority 2019, published 2022).

One series has as its system male rats. Put plainly: Maintenance of established oxycodone self-administration (substitution). It is filed as in vivo, rat. The protocol: Self-administration (SA): Self-administration tests were conducted in standard operant chambers (MED Associates, St. Albans, Vt.). Infusions were delivered through TYGON tubing threaded through metal spring leashes and attached to exterior infusion pumps. 3-hour sessions were conducted Monday-Friday during the dark cycle. At the start of each session, the house light was illuminated, and levers extended. […] For the first 5 sessions, rats were trained to lever press for oxycodone (0.1 mg/kg/infusion) on a FR1 reinforcement schedule. For the following 10 sessions, the dose of oxycodone was decreased to 0.05 mg/kg/infusion to increase lever responding.
Maintenance of established oxycodone self-administration: Following acquisition of oxycodone self-administration, animals were split into treatment groups counterbalanced for total oxycodone intake, average number of infusions obtained in the last 3 sessions, and average number of active lever pressings over the last 3 sessions. Ten maintenance sessions were conducted in the same way as oxycodone acquisition except rats were either maintained on 0.1 mg/kg/infusion oxycodone or had drug availability substituted with equi-antinociceptive 1 mg/kg/infusion ZH853 or vehicle.

Series [1] relates to rats trained to discriminate morphine from vehicle. The series is described as follows: Drug discrimination (DD), morphine-trained rats. The settings on record: for Response rate impairment %: highest dose tested (5.6 mg/Kg), percent of vehicle responding. The procedure: Drug Discrimination (DD): Rats were food deprived to approximately 85% of the weight of free feeding cohorts to establish operant responding for 45 mg food pellets (Bioserve, Frenchtown, N.J.) in standard operant chambers (MED Associates, St. Albans, Vt.). Rats were fed 10-20 g of standard food after daily DD sessions, and ˜3× the daily amount on weekends to maintain appropriate weight. DD consisted of 3 phases (Krivsky et al., 2006). In phase 1, rats were trained to lever press for food at a fixed ratio (FR) level 1 (i.e., 1 lever press=1 food pellet) using 2 levers with stimulus lights located above each lever and a food hopper between the levers during 120 min sessions. Responding on either lever extinguished the light and delivered a food pellet. […] Once >20 pellets were earned at FR9, sessions were shortened to 20 min and response requirements were set at FR10 and the left or right lever reinforced responding on alternate days. Once >20 pellets were earned on each lever at FR10, rats started phase 2 of DD training.
Only responses on the correct lever were reinforced and responses on the incorrect lever reset the response requirement on the correct lever. Criteria to move to phase 3 were as follows: >20 pellets per session, >90% injection appropriate lever responding, and <9 responses on the incorrect lever before the first food pellet reward.
Two paradigms were utilized to generate substitution curves: cumulative within-session and bolus between-session injections.
During substitution tests, both levers actively delivered food at an FR10 schedule. […] Doses were increased in ¼ log increments, with injections every 20 min followed 15 minutes later by DD sessions lasting 5 min each. […] The advantage of this procedure was that an entire dose-response was generated in one session.
Statistics: PRISM software (GraphPad, San Diego, Calif.) was used for one-way analysis of variance (ANOVA) with Newman-Keuls post-hoc comparisons to compare CPP groups, locomotor effects, hot plate, and DD response rates. Locomotor data recorded during the conditioning sessions were analyzed by 2-way ANOVA (session x drug) and data from the first session were subtracted from the final session to assess locomotor enhancement. Experimenters were blinded to treatment groups.

Another series has as its system Male Sprague-Dawley rats. The series is described as follows: Reinstatement of morphine-induced conditioned place preference. The settings on record: priming dose 1.8 mg/Kg, 20 min, vs baseline. The procedure:
Male Sprague-Dawley rats were exposed to a conditioned place preference (CPP) apparatus for two sessions to determine baseline (BL) preference for 2 distinct, unbiased chambers. […] The animals then underwent extinction procedures consisting of confinement for 45 min in the previously drug- and vehicle-paired chambers for 7 days.

The next series relates to rats. To be noted: cited from earlier work.
In another series the test system is male and female mice. To be noted: acute, equi-antinociceptive doses.
The test system of another series is male and female rats. Put plainly: Naloxone-induced conditioned place aversion (CPA). The format is in vivo, rat. The settings on record: i.v. morphine 5.6 mg/Kg or ZH853 4.2 mg/Kg, naloxone 1 mg/Kg s.c. 4 h later. The protocol: Four hours later they received s.c. naloxone (1 mg/Kg) and were confined to one side of the apparatus (counterbalanced) for 20 min. The following day the animals received vehicle-then-saline rather than drug-then-naloxone. This cycle (drug+4 h+nlx+next day vehicle+saline) was repeated once, and the next day the animals had access to the entire apparatus (Post-cond).
To assess whether ZH853 induces the negative affect typical of opioid withdrawal, the conditioned place aversion (CPA) test was conducted.

Series [2] relates to Male Sprague Dawley rats. Put plainly: Locomotor sensitization during CPP conditioning sessions. It is filed as in vivo, rat. The settings on record: 1.8, 3.2, 5.6 mg/Kg i.v., 5 daily injections, compared to vehicle. The procedure:
(§1) Conditioned Place Preference (CPP) and locomotor activity: Standard CPP chambers (TSE; Chesterfield, Mo.) were used to measure baseline activity and conditioning trials. Baseline activity was measured over 2 days with 4 trials per day (2 in the AM, and 2 in the PM) lasting 20 min each. […] Conditioning trials were conducted for 5 days and tested in an unbiased manner such that drug/environment pairings were counterbalanced for time of drug injection (AM or PM) and compartment (preferred or non-preferred) based on baseline activity. […] This indicates a lack of carry-over effects of drug between sessions. One day following the last conditioning trial, a 20 min test trial was conducted in the same manner as baseline trials in which rats were free to explore both compartments. Change in time spent exploring the drug-paired compartment (test-baseline) was used to indicate preference (or aversion) to the compartment. Approximately 20 min following the final session, rats were perfused and brain samples were taken for immunohistochemical analysis (below). Locomotor activity was assessed by infrared light beams located in the conditioning compartments and the start box. […] Data were recorded in meters and an assessment of locomotor sensitization was made by subtracting the first session from the final session.
(§2) Experimenters were blinded to treatment groups.

The subject of a further series is glia. The settings on record: conditions where morphine activates glia; cited from earlier work.
Series [3] deals with Male Sprague Dawley rats. Put plainly: Conditioned place preference (CPP), 5-day procedure. To be noted: 5 days of conditioning, 1.8, 3.2, 5.6 mg/Kg i.v. The format is in vivo, rat. The protocol:
as §1, §2

The conditions of series [4]: cumulative doses producing maximum antinociceptive effects; cited from earlier work.

On to `NC(=O)CNC(=O)[C@@H]1CCC(=O)NCCCC[C@@H](NC(=O)[C@@H](N)Cc2ccc(O)cc2)C(=O)N[C@@H](Cc2c[nH]c3ccccc23)C(=O)N[C@@H](Cc2ccccc2)C(=O)N1` [ZH853, Tyr-c[D-Lys-Trp-Phe-Glu]-Gly-NH2], for which, in the series with male rats (after acquisition of oxycodone SA, drug continued or substituted, i.v. infusions), the “self-administration behavior during maintenance sessions” value is “the self-administration behavior extinguished over time; also recorded: reduced the number of infusions obtained (C) and active lever responses (D) over maintenance sessions”. Also, the “rate of extinction of self-administration” value in the series on male rats (substitution for oxycodone) was “faster than with vehicle substitution”. Further, the “Response rate impairment %” value in series [1] (bolus injections) is 15% and 15.1%; in [1] (cumulative injections) it was 0.8%. The “response rates for food during test sessions” value in series [1] (i.v., compared to vehicle) is listed as “not impaired; also recorded: lowest among all compounds tested”. In addition, in the series on Male Sprague-Dawley rats, the “reinstatement of morphine CPP after extinction” value was “scores not significantly different from baseline”. For the same compound, in the series on rats (12-hour SA sessions, 3 mg/Kg/infusion), the “hourly SA intake (peak)” value is 1.1 mg/kg/h. Besides, the “reinforcing effects in SA/CPP procedures” value in the series on rats (rat, in vivo) is “did not produce reinforcing effects in SA/CPP procedures”. In the series on male and female mice, the “distance traveled (AUC)” value is reported as “did not affect the distance traveled”. For the same compound, the naloxone-induced place aversion result in the series with male and female rats is listed as “did not produce a place aversion”. Also, the “locomotor sensitization (LS), day 5 minus day 1” value in the series with Male Sprague Dawley rats [2] is reported as “did not produce LS at any dose tested”. Moreover, the glial activation result with glia is reported as “lack of glial activation”. Further, the “conditioned place preference (CPP) or aversion” value in the series with Male Sprague Dawley rats [3] is on record as “did not produce CPP (or aversion) at any dose”. For the same compound, in [4], the “motor impairment on the Rotarod” value is on record as “lack of motor impairment”.
